Paper PMC8863579, “Effects of pharmacological inhibition of the sodium‐dependent phosphate cotransporter 2b (NPT2b) on intestinal phosphate absorption in mouse and rat models” (Pharmacology Research & Perspectives, 2022)

What was measured:
gastric emptying = experiment: Gastric emptying assay in mice; assay type: in vivo, mouse; details: doses up to 100 mg/kg API
Description: Male C57BL/6 mice, approximately 7–8 weeks old (18–21 g), were fasted overnight. Then, the mice were orally administered a single dose of vehicle (water) or varying doses of LY3358966 SDD dissolved in water. Fifteen minutes later, radiolabeled phosphate was given by oral gavage. Another 15 min later, the animals were sacrificed, and intact stomachs were collected and placed in 50‐ml conical tubes. Ten milliliter of 1 N NaOH was added to each tube and the stomachs were digested at 37°C overnight. Radioactivity in 100 µl digested stomach homogenate was quantitated by scintillation counting. The percent radiolabeled phosphate recovered in the stomach was calculated as the percentage of dpm recovered in the stomach versus the total dpm of radiolabeled phosphate administered.

Human PiT2 = target: T1, Human PiT2 (Homo sapiens, UniProt Q08357); experiment: 33P-phosphate uptake in CHO cells over-expressing human PiT2; assay type: cell-based
T1 construct: Full Length cDNA Cloning and Generation of Cell Lines Over-Expressing Human NPT2a, NPT2c, Pit1, and Pit2; host or cells: CHO-K1, pcDNA3.1(+), constitutive
T1 sequence (Q08357 1-652): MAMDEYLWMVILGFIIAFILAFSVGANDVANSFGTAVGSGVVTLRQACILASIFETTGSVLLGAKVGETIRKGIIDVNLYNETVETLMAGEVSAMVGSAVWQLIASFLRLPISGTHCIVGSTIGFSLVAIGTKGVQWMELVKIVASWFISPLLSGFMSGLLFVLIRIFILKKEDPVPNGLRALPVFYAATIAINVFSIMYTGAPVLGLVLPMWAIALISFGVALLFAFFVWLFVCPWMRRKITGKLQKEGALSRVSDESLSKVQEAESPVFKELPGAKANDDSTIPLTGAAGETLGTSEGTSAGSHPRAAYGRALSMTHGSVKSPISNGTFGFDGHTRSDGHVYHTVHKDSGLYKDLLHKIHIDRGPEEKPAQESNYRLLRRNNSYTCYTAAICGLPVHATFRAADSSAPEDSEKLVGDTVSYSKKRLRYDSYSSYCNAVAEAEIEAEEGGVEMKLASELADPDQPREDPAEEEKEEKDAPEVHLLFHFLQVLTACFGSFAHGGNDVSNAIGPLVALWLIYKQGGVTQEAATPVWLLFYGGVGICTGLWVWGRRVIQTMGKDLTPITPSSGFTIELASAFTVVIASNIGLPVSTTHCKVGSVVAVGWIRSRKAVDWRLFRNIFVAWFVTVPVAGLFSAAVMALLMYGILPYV
Description: (§1) T‐Rex™ Chinese Hamster Ovary cells (CHO; Thermo Fisher Scientific) stably expressing human, mouse, or rat NPT2b under a tetracycline‐inducible promoter were generated using standard cDNA transfection and clone selection procedures (see Supporting Information). Cells were plated in 96‐well CytoStar‐T® scintillating microplates and were incubated overnight in growth media plus 100 ng/ml of tetracycline to induce expression of NPT2b. The next day, cells were washed 3 times with 200 µl assay buffer (137 mM NaCl, 5.4 mM KCl, 2.8 mM CaCl2, 1.2 mM MgSO4, and 14 mM Tris‐HCl buffer, pH 7.5). LY3358966 serially diluted 1‐to‐3 in DMSO was added to cells with assay buffer. An equal volume of H3 ^33PO4 (PerkinElmer) in assay buffer supplemented with 5 µM potassium phosphate was then added to initiate radiolabeled phosphate (^33P‐phosphate) uptake. […] The plate was immediately read on a Wallac MicroBeta Trilux liquid scintillation counter. Percent inhibition at all concentrations tested was calculated, and IC50 values were then determined using a 4‐parameter logistic curve fitting equation.
(§2) Similar methods were used to measure the effects of LY3358966 on other transporters of interest, except that constitutive promoters were used to generate CHO cells over‐expressing human PiT1 and PiT2. The ^33P‐phosphate uptake was measured after 45 min at 20°C for the NPT2a, NPT2c, PiT1, and PiT2 assays. […]

Human NPT2c = target: T2, Human NPT2c (Homo sapiens, UniProt Q8N130); experiment: 33P-phosphate uptake in CHO cells expressing human NPT2c; assay type: cell-based
T2 construct: Full Length cDNA Cloning and Generation of Cell Lines Over-Expressing Human NPT2a, NPT2c, Pit1, and Pit2; host or cells: CHO-K1 / T-REx CHO, pJTI R4 CMV-TO, tetracycline-induced
T2 sequence (Q8N130 1-599): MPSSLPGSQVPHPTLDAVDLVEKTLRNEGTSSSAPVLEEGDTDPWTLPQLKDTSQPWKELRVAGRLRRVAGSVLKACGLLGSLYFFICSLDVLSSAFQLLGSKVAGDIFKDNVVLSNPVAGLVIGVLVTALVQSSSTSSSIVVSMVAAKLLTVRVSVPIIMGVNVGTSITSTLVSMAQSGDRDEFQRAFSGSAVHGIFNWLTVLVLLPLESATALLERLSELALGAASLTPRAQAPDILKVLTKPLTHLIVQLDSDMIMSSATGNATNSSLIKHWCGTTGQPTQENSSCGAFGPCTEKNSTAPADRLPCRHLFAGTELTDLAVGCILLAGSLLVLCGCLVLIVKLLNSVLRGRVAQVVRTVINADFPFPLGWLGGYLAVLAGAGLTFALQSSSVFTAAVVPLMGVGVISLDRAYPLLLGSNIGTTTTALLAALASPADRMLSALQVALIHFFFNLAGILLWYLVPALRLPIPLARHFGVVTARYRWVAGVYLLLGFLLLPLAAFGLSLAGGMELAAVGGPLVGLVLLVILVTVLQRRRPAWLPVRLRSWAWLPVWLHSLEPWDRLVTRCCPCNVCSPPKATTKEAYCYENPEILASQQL
Description: as §1, §2

- effect on gastric emptying (gastric emptying): no effect on gastric emptying
- IC50 (Human PiT2; 45 min at 20°C): > 100000 nM
- Selectivity (Human PiT2; ratio of IC50 of human PiT2 assay to that of human NPT2b assay): >3086
- IC50 (Human NPT2c; geometric mean, 45 min at 20°C): 251 nM
- Selectivity (Human NPT2c; ratio of IC50 of human NPT2c assay to that of human NPT2b assay): 8
Structure (SMILES): CC1(C)CN(C(=O)NCCCCO)CCN1Cc1cccc(C(=O)Nc2sc3c(c2C(=O)Nc2cc(F)c(CCc4ccc(C(=O)O)cc4)c(F)c2)CCCC3)c1 [LY3358966, 4‐[2‐[2,6‐difluoro‐4‐[[2‐[[3‐[[4‐(4‐hydroxybutylcarbamoyl)‐2,2‐dimethyl‐piperazin‐1‐yl]methyl]benzoyl]amino]‐4,5,6,7‐tetrahydrobenzothiophene‐3‐carbonyl]amino]phenyl]ethyl]benzoic acid]
